From publication PMC5716993, “The interdomain flexible linker of the polypeptide GalNAc transferases dictates their long-range glycosylation preferences” (Nature Communications, 2017)

Assays:
[1] = biological target: T1, GalNAc-T2 (Homo sapiens, UniProt Q10471); test: Transferase assay / Michaelis-Menten kinetics of GalNAc-T2; assay type: biochemical; settings: for Vmax / Km: GalNAc-T2 (0.02 µM), pH 6.5 cacodylate, 37 °C, 0.25 mM UDP-[3H]-GalNAc, Michaelis-Menten fit (1/y weighting), ± standard deviation; for Vmax: 10 mM MnCl2, scintillation counting; for Catalytic efficiency (Vmax/Km): errors estimated from the largest percent error of Vmax or Km
T1 construct: the previous reported template pPICZαAgalnact2 (K75-Q571); made in house; host or cells: Pichia pastoris (pPICZαA)
Method: (§1) Specific activity determinations: GalNAc-T glycosylation reactions against (glyco)peptides 1–3 were performed with 75 mM sodium cacodylate, pH 6.5, 1 mM 2-mercaptoethanol, 10 mM MnCl2, 0.25 mM [^3H]-radiolabeled UDP-GalNAc (~6 × 10^8 DPM/µmole, American Radiolabeled Chemicals Inc.), and 1.4 mM (~1.25 mg/ml) of (glyco)peptide (from 4 mM stock in 1 mM TRIS, pH ~7) and varying concentrations (0.01 to 0.5 µM) of transferase (determined by OD280), giving a final reaction volumes of 20 µl in 100 µl capped Eppendorf tubes. Reactions were incubated at 37 °C in a thermostated microplate shaker (Taitec Microincubator M-36) and quenched at the appropriate reaction time by the addition of 20 µl of 250 mM EDTA and placed on ice prior to final workup. Typically, for each transferase, glycosylation reactions were performed at the same time with all three (glyco)peptide substrates (including a no peptide control) using the same batch of transferase and the same UDP-[^3H]-GalNAc stock. Before performing time course experiments, the relative activity of each transferase was determined by trial and error against all three peptides to determine the optimal transferase concentration or incubation time that gave no more than 10% peptide glycosylation against the best substrate. Final time course experiments typically consisted of incubation times of 10, 20, and 30, or 30, 60, and 90 or 120 min (depending on activity) and were performed at least twice. Most transferases were also characterized at two different enzyme concentrations (0.01–0.03 and 0.2–0.5 µM) and the results combined. After quenching the reaction and diluting to 4 ml, free UDP and non-hydrolyzed UDP-GalNAc were removed by passage over a Dowex 1 × 8 anion exchange resin (~3 ml column). Total UDP-[^3H]-GalNAc utilization (transfer to peptide substrate and transfer to water, i.e, hydrolysis) was determined by difference after scintillation counting (Beckman LS5801 scintillation counter) 1/20 of the sample before and after passage over Dowex 1 × 8. The extent of [^3H]-GalNAc transfer to peptide and the extent of hydrolysis was determined by Sephadex G10 gel filtration analysis, typically for the longest reaction time point, as previously described. Example gel filtration chromatograms are given in Supplementary Fig. 12. Significant hydrolysis was only observed for GalNAc-T4, which was corrected for in determining its specific activity. Specific activity was obtained by calculating at each individual data time point (of the combined time course plots, Fig. 4b), an individual-specific activity, which was then averaged to obtain the overall average specific activity (and standard deviation). Specific activity is reported as nmol of glycopeptide product formed per min, per pmol of enzyme. Substrate activity ratios (i.e., substrate ratios 2/1, 3/1, and 3/2) were also obtained at each individual time point and averaged (with standard deviation). […] Note that the Microsoft Excel least squares fitting function LINEST was used to obtain the linear plots shown in Fig. 4b while fixing the y intercept to zero. Note that the specific activity calculated from the least square slope differed slightly (less than 10%) from that determined from the average of the individual time points.
(§2) Detailed enzyme kinetics on GalNAc-T4, GalNAc-T2, the GalNAc-T2 triple mutant and GalNAc-T2 chimera 3: Glycosylation reactions were performed as described above using a fixed enzyme concentration (0.06 µM for GalNAc-T4, and 0.02 µM for GalNAc-T2 and its linker constructs) with varying peptide concentrations (typically 45, 90, 180, 350, 700, 1400, and 2000 μM). Incubation times (10–90 min) were chosen such that no more than 30% of the UDP-GalNAc donor was depleted while typically giving less than 10% peptide glycosylation, after correction for UDP-GalNAc hydrolysis described above. Specific activities were obtained from one to two individual incubation time points performed in two–three separate experiments. […]

[2] = biological target: T2, GalNAc-T2 (triple mutant, R438A-D444A-F447A) (Homo sapiens, UniProt Q10471, D444A/F447A/R438A); test: Transferase assay / Michaelis-Menten kinetics of GalNAc-T2 triple mutant; assay type: biochemical; settings: for Vmax / Km: Triple Mutant (0.02 µM), pH 6.5 cacodylate, 37 °C, 0.25 mM UDP-[3H]-GalNAc, Michaelis-Menten fit, ± standard deviation; for Vmax: 10 mM MnCl2; for Catalytic efficiency (Vmax/Km): Triple Mutant, errors estimated from the largest percent error of Vmax or Km
T2 construct: the previous reported template pPICZαAgalnact2 (K75-Q571); made in house; host or cells: Pichia pastoris SMD1168 (pPICZαA)
Method: as §1, §2

T2 sequence (Q10471 75-571 R438A/D444A/F447A): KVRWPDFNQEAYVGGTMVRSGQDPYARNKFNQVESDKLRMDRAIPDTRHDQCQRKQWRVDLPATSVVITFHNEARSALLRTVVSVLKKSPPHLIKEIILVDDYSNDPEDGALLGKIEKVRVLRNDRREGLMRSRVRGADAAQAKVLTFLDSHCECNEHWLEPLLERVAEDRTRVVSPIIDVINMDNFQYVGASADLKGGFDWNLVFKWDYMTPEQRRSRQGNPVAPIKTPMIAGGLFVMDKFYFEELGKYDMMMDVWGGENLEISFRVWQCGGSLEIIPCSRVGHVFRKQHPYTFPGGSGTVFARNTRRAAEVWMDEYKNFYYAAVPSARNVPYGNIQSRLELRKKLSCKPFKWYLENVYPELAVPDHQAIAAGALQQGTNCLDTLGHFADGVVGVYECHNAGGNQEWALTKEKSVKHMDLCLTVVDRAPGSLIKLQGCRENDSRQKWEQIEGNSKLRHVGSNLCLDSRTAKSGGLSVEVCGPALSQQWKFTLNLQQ
T1 sequence (Q10471 75-571): as the sequence (Q10471 75-571 R438A/D444A/F447A) above, with A364R, A370D, A373F counted along it

| increase in catalytic efficiency for monoglycopeptide 2 over monoglycopeptide 3 ([1]; GalNAc-T2, ratio 2 over 3) | Km of monoglycopeptide 2 compared to monoglycopeptide 3 ([1]; GalNAc-T2, ratio, in words) | change in kinetic parameters against monoglycopeptide 2 ([2]; triple mutant, in words) | Substance | Vmax [1] | Km [1] [µM] | Catalytic efficiency (Vmax/Km) ([1]; GalNAc-T2) [nmol/min] | substrate preference of GalNAc-T2, higher substrate concentrations ([1]; in words) | Vmax [2] | Km [2] [µM] | Catalytic efficiency (Vmax/Km) [2] [nmol/min] | substrate preference of GalNAc-T2, low substrate concentrations ([1]; low substrate concentrations, in words) |
| --- | --- | --- | --- | --- | --- | --- | --- | --- | --- | --- | --- |
|  |  |  | GAT*GAGAGAGTTPGPG [Peptide 3, monoglycopeptide GAT*…, T* denotes the Thr-O-GalNAc moiety] | 3.79 ± 0.34 mM/(nmole*min) | 750 ± 130 | 5.03 ± 1.8 | nearly equal preferences | 2.82 ± 0.10 mM/(nmole*min) | 570 ± 50 | 4.94 ± 0.9 |  |
| over threefold | ~ fourfold lower | decrease in Vmax and increase in Km | AGAGTTPGPGAGAT*GA [Peptide 2, monoglycopeptide …*GA, T* denotes the Thr-O-GalNAc moiety] | 3.12 ± 0.07 mM/(nmole*min) | 180 ± 10 | 17.0 ± 2.3 | nearly equal preferences | 1.80 ± 0.06 mM/(nmole*min) | 400 ± 40 | 4.54 ± 0.9 | high preference for monoglycopeptide 2 at low substrate concentrations |
